Data taken from PMC11544091 (Nature Communications, 2024).

Target: T1, human A3R (Homo sapiens, UniProt P0DMS8)
T1 sequence (P0DMS8 1-318): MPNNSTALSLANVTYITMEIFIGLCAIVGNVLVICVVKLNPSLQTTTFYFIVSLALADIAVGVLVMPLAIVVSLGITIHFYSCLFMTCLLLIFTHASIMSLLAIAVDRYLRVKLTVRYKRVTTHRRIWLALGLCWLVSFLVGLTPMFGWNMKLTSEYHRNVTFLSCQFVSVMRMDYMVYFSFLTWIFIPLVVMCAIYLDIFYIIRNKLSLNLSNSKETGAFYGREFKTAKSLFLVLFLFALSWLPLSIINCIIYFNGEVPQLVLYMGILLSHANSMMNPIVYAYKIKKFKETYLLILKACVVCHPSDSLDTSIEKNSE
Assay: TGFα shedding assay, human A3R WT
Type: cell-based
Details: for activation of A3R (in words): human A3R

| calculated intrinsic activity (RAi) relative to adenosine (A3R) [%] | activation of A3R (in words) | potency towards all four adenosine receptors (in words) (A1R, A2AR, A2BR, A3R) | Molecule |
| --- | --- | --- | --- |
| 59 | selectively activates A3R | – | CC(C)=CCNc1ncnc2c1ncn2[C@@H]1O[C@H](CO)[C@@H](O)[C@H]1O [i6A, N6-Isopentenyladenosine] |
| – | did not show any potency on A3R | – | C[C@@H](O)[C@H](NC(=O)Nc1ncnc2c1ncn2[C@@H]1O[C@H](CO)[C@@H](O)[C@H]1O)C(=O)O [t6A, N6-Threonylcarbamoyladenosine] |
| 7 | very weak activation of A3R | – | CN(C)c1ncnc2c1ncn2[C@@H]1O[C@H](CO)[C@@H](O)[C@H]1O [m6,6A, N6,N6-Dimethyladenosine] |
| – | can also induce A3R activation | weak and non-selective potency | 1-methyladenosine [m^1A] |
